From patent US20100093662A1, “NOVEL AMPHIPHILIC CYCLODEXTRIN DERIVATIVES” (CENTRE NATIONAL DE LA RECHERCHE SCIENTIFIQUE-CNRS-, priority 2006, published 2010)

Assay: Size and polydispersion of white homogenous nanospheres (quasi-elastic diffusion of light), physical stability over time
Type: physicochemical
Procedure: The method used to prepare white homogenous nanospheres consists in introducing an organic phase of acetone (or tetrahydrofurane) and an amphiphilic cyclodextrin derivative from the invention (1 mg·mL^−1) in an aqueous phase of equivalent volume or a double volume (distilled water), under magnetic stirring (500 r.p.m.) at 25° C. After nanoprecipitation, the organic solvent is eliminated under reduced pressure at +35° C. The aqueous suspension presenting an opalescent to milky appearance (according to the products used) is then concentrated until the final volume desired is obtained, then filtered on a 0.8 μm filter (Millex AA, Millipore, France).
The colloid suspensions are then characterised as regards the granulometry (mean size and polydisperion) and, when they incorporate loaded amphiphilic cyclodextrins, by their zeta potential. The characterisation is carried out using the following methods:
The quasi-elastic diffusion of light is used. A Zetasizer 3000 apparatus equipped with a K7132 correlator (Malvern Instruments, RU) was used. The conditions for measurement are as follows: angle of detection 90°, temperature 25±0.1° C., apparent viscosity 0.89 mPa·s. Before measuring the size, samples are diluted in distilled water if necessary. The hydrodynamic diameter (mean Z) and polydispersion index (PI) of the nanoparticles in suspension are calculated in intensity by the cumulant method by carrying out 3 measurements on the same sample. The value of the hydrodynamic diameter is calculated using the measurement of the translational coefficient of diffusion of particles with Brownian movement. An NanoZS apparatus (Malvern Instruments) was also used to measure the size of the nanocapsules. In the same way, the samples are diluted before measurement, if necessary in water added to Montanox 80 (trade mark).
The studies on the physical stability of particles were carried out over periods ranging from 1 month to 8 months. The corresponding data for a series of amphiphilic cyclodextrins in the invention are indicated in Table 1 providing the granulometric characteristics (mean size and polydispersion index or mean PI), with evolution over time, of different homogenous nanospheres derived from the compounds indicated in the left column, the reference number for said compounds corresponding to those of the compounds described in the above examples.

Compound	IP (polydispersion index) (3 months)	Mean size ± standard deviation (n = 3) (3 months)	IP (polydispersion index) (6 months)	Mean size ± standard deviation (n = 3) (6 months)	Mean size ± standard deviation (n = 3) (initial)	PI (polydispersion index) (initial)	Mean size ± standard deviation (n = 3) (8 months)	PI (polydispersion index) (8 months)
CCCCCCCCCCCCCC(=O)O[C@@H]1[C@@H](OC(=O)CCCCCCCCCCCCC)[C@H]2O[C@H]3[C@H](OC(=O)CCCCCCCCCCCCC)[C@@H](OC(=O)CCCCCCCCCCCCC)[C@@H](O[C@H]4[C@H](OC(=O)CCCCCCCCCCCCC)[C@@H](OC(=O)CCCCCCCCCCCCC)[C@@H](O[C@H]5[C@H](OC(=O)CCCCCCCCCCCCC)[C@@H](OC(=O)CCCCCCCCCCCCC)[C@@H](O[C@H]6[C@H](OC(=O)CCCCCCCCCCCCC)[C@@H](OC(=O)CCCCCCCCCCCCC)[C@@H](O[C@H]7[C@H](OC(=O)CCCCCCCCCCCCC)[C@@H](OC(=O)CCCCCCCCCCCCC)[C@@H](O[C@H]8[C@H](OC(=O)CCCCCCCCCCCCC)[C@@H](OC(=O)CCCCCCCCCCCCC)[C@@H](O[C@@H]1[C@@H](CI)O2)O[C@@H]8CI)O[C@@H]7CI)O[C@@H]6CI)O[C@@H]5CI)O[C@@H]4CI)O[C@@H]3CI [compound no. 4, heptakis(6-desoxy-6-iodo-2,3-di-O-myristoyl)cyclomaltoheptaose]	0.03	206 ± 20 nm	0.06	227 ± 26 nm	217 ± 17 nm	0.04	–	–
CCCCCCCCCCCCCC(=O)O[C@@H]1[C@@H](OC(=O)CCCCCCCCCCCCC)[C@H]2O[C@H]3[C@H](OC(=O)CCCCCCCCCCCCC)[C@@H](OC(=O)CCCCCCCCCCCCC)[C@@H](O[C@H]4[C@H](OC(=O)CCCCCCCCCCCCC)[C@@H](OC(=O)CCCCCCCCCCCCC)[C@@H](O[C@H]5[C@H](OC(=O)CCCCCCCCCCCCC)[C@@H](OC(=O)CCCCCCCCCCCCC)[C@@H](O[C@H]6[C@H](OC(=O)CCCCCCCCCCCCC)[C@@H](OC(=O)CCCCCCCCCCCCC)[C@@H](O[C@H]7[C@H](OC(=O)CCCCCCCCCCCCC)[C@@H](OC(=O)CCCCCCCCCCCCC)[C@@H](O[C@H]8[C@H](OC(=O)CCCCCCCCCCCCC)[C@@H](OC(=O)CCCCCCCCCCCCC)[C@@H](O[C@@H]1[C@@H](CBr)O2)O[C@@H]8CBr)O[C@@H]7CBr)O[C@@H]6CBr)O[C@@H]5CBr)O[C@@H]4CBr)O[C@@H]3CBr [compound no. 5, heptakis(6-bromo-6-desoxy-2,3-di-O-myristoyl)cyclomaltoheptaose]	0.05	232 ± 22 nm	0.03	242 ± 27 nm	244 ± 13 nm	0.13	–	–
CCCCCC(=O)O[C@@H]1[C@@H](OC(=O)CCCCC)[C@H]2O[C@H]3[C@H](OC(=O)CCCCC)[C@@H](OC(=O)CCCCC)[C@@H](O[C@H]4[C@H](OC(=O)CCCCC)[C@@H](OC(=O)CCCCC)[C@@H](O[C@H]5[C@H](OC(=O)CCCCC)[C@@H](OC(=O)CCCCC)[C@@H](O[C@H]6[C@H](OC(=O)CCCCC)[C@@H](OC(=O)CCCCC)[C@@H](O[C@H]7[C@H](OC(=O)CCCCC)[C@@H](OC(=O)CCCCC)[C@@H](O[C@H]8[C@H](OC(=O)CCCCC)[C@@H](OC(=O)CCCCC)[C@@H](O[C@@H]1[C@@H](CSCCNC(=O)OC(C)(C)C)O2)O[C@@H]8CSCCNC(=O)OC(C)(C)C)O[C@@H]7CSCCNC(=O)OC(C)(C)C)O[C@@H]6CSCCNC(=O)OC(C)(C)C)O[C@@H]5CSCCNC(=O)OC(C)(C)C)O[C@@H]4CSCCNC(=O)OC(C)(C)C)O[C@@H]3CSCCNC(=O)OC(C)(C)C [compound no. 7, heptakis[6-(2-tert-butoxycarbonylaminoethylthio)-6-desoxy-2,3-di-0-hexanoyl]cyclomaltoheptaose]	–	–	–	–	283 ± 29 nm	0.06	194 ± 2 nm	0.02
CCCCCC(=O)O[C@@H]1[C@@H](OC(=O)CCCCC)[C@H]2O[C@H]3[C@H](OC(=O)CCCCC)[C@@H](OC(=O)CCCCC)[C@@H](O[C@H]4[C@H](OC(=O)CCCCC)[C@@H](OC(=O)CCCCC)[C@@H](O[C@H]5[C@H](OC(=O)CCCCC)[C@@H](OC(=O)CCCCC)[C@@H](O[C@H]6[C@H](OC(=O)CCCCC)[C@@H](OC(=O)CCCCC)[C@@H](O[C@H]7[C@H](OC(=O)CCCCC)[C@@H](OC(=O)CCCCC)[C@@H](O[C@H]8[C@H](OC(=O)CCCCC)[C@@H](OC(=O)CCCCC)[C@@H](O[C@@H]1[C@@H](CSCCN=C=S)O2)O[C@@H]8CSCCN=C=S)O[C@@H]7CSCCN=C=S)O[C@@H]6CSCCN=C=S)O[C@@H]5CSCCN=C=S)O[C@@H]4CSCCN=C=S)O[C@@H]3CSCCN=C=S [compound no. 9, heptakis[6-desoxy-2,3-di-0-hexanoyl-6-(2-isothiocyanatoethylthio)]cyclomaltoheptaose]	0.09	138 ± 2 nm	–	–	123 ± 2 nm	0.03	–	–
CCCCCC(=O)OC1C2OC(CSCCNC(=S)NC)C(OC3OC(CSCCNC(=S)NC)C(OC4OC(CSCCNC(=S)NC)C(OC5OC(CSCCNC(=S)NC)C(OC6OC(CSCCNC(=S)NC)C(OC7OC(CSCCNC(=S)NC)C(OC8OC(CSCCNC(=S)NC)C(O2)C(OC(=O)CCCCC)C8OC(=O)CCCCC)C(OC(=O)CCCCC)C7OC(=O)CCCCC)C(OC(=O)CCCCC)C6OC(=O)CCCCC)C(OC(=O)CCCCC)C5OC(=O)CCCCC)C(OC(=O)CCCCC)C4OC(=O)CCCCC)C(OC(=O)CCCCC)C3OC(=O)CCCCC)C1OC(=O)CCCCC (centres unmarked) [compound no. 13, heptakis[6-desoxy-2,3-di-0-hexanoyl-6-(2-(N′-methylthioureido)ethylthio)]cyclomaltoheptaose]	–	–	–	–	115 ± 31 nm	0.16	–	–
CCCCCC(=O)OC1C2OC(CO)C(OC3OC(CO)C(OC4OC(CO)C(OC5OC(CO)C(OC6OC(CSCCNC(=S)NCCSCC7OC8OC9C(CO)OC(OC%10C(CO)OC(OC%11C(CO)OC(OC%12C(CO)OC(OC%13C(CO)OC(OC%14C(CO)OC(OC7C(O)C8O)C(O)C%14O)C(O)C%13O)C(O)C%12O)C(O)C%11O)C(O)C%10O)C(O)C9O)C(OC7OC(CO)C(OC8OC(CO)C(O2)C(OC(=O)CCCCC)C8OC(=O)CCCCC)C(OC(=O)CCCCC)C7OC(=O)CCCCC)C(OC(=O)CCCCC)C6OC(=O)CCCCC)C(OC(=O)CCCCC)C5OC(=O)CCCCC)C(OC(=O)CCCCC)C4OC(=O)CCCCC)C(OC(=O)CCCCC)C3OC(=O)CCCCC)C1OC(=O)CCCCC (centres unmarked) [compound no. 26]	–	–	–	–	100 ± 20 nm	0.06	–	–
heptakis(6-azido-6-desoxy-2,3-di-0-myristoyl)cyclomaltoheptaose [compound no. 6]	0.06	157 ± 8 nm	0.04	198 ± 12 nm	171 ± 9 nm	0.03	–	–
heptakis[6-(2-tert-butoxycarbonylaminoethylthio)-6-desoxy-2,3-di-O-myristoyl]cyclomaltoheptaose [compound no. 10]	0.07	207 ± 1 nm	0.32	269 ± 64 nm	212 ± 14 nm	0.11	–	–
heptakis[6-desoxy-2,3-di-0-myristoyl-6-(2-isothiocyanatoethylthio)]cyclomaltoheptaose [compound no. 12]	–	–	–	–	72 ± 32 nm	0.31	–	–
